Results from paper PMC12298648, “An Evaluation of the Cytotoxicity and Safety Profile of Usnic Acid for a Broad Panel of Human Cancers and Normal Cells with Respect to Its Enantiospecificity” (Molecules, 2025).
In brackets after ≈: the same amount, converted by molar mass. Read-outs that look alike come from different tables or passages of the source.

Experiments:
TPC-1 = test: MTT viability assay, TPC-1 papillary thyroid carcinoma cells; type: cell-based, human; details: for IC50: Homo sapiens, TPC1; for Cell viability: TPC-1, 24 h
Source text: (§1) Cell lines of different origins were used in the study and grouped as follows: prostate panel (human prostate carcinomas: DU145, derived from metastatic site: brain; grade IV PC3, derived from metastatic site: bone; LNCaP, derived from the metastatic site: lymph node; prostate epithelial, PNT2), colon panel (colorectal adenocarcinomas: HT29, originating from a primary tumor; Duke’s type C DLD-1, with the potential to lymph node metastasis; highly metastatic HCT116; colon epithelial cells CCD 841 CoN), thyroid panel (follicular thyroid carcinoma FTC133, anaplastic thyroid carcinoma 8505C, papillary thyroid carcinoma TPC-1, normal thyroid follicular epithelial Nthy-ori 3–1), breast panel (ER-positive breast adenocarcinoma MCF7, ER-negative breast adenocarcinoma MDA-MB-231, breast epithelial MCF10A), brain panel (neuroblastoma SH-SY5Y, glioblastoma U-87 MG, murine astrocytes C8D1A). All cell lines were purchased from Merck (Darmstadt, Germany).
(§2) Cells were grown under standard conditions (37 °C, 5% CO2) and culture media (DMEM/F12 for PNT2, PC3, FTC133, 8505 C, MDA-MB-231, TPC-1; DMEM Low Glucose for DU145; DMEM High Glucose for HCT116, DLD-1, SH-SY5Y, U87MG, C8D1A; MEM with NEAA for MCF7; MEM for CCD 841 CoN; McCoy’s for HT29; RPMI1640 with sodium pyruvate for LNCaP; DMEM/F12 with 20 ng/mL epidermal growth factor (EGF), 10 μg/mL insulin, 0.5 μg/mL hydrocortisone, 100 ng/mL cholera toxin) for MCF10A), supplemented with 10% fetal bovine serum (FBS) or 5% donor horse serum for MCF10A, and 1% antibiotics solution (10,000 U penicillin and 10 mg streptomycin/mL). The tested substances were prepared as 10 mg/mL stock solutions in DMSO and further diluted in the culture media to the working concentrations. Cells were treated with UA enantiomers at the concentration range of 0–50 µg/mL. The influence of DMSO on cell viability was also examined, with the final concentration […], and no toxic effect was noted.
(§3) The cells were seeded onto 96-well plates at a density of 1.5 × 10^4 cells/well. After 24 h UA enantiomers were added. Cell viability was determined after 24, 48, and 72 h by the MTT assay, as described previously. Doxorubicin was used as a reference cytostatic drug. All analyses were performed in triplicate; cell viability was expressed as % of control, untreated cells (mean ± SD), and IC50 values (concentration at which cell viability is inhibited by 50%), if possible.
(§4) The selectivity index (SI) was calculated, if possible, by dividing the IC50 value obtained for non-cancerous cells line by the IC50 values obtained for appropriate cancer cell line, as described previously. […] The values above 3 indicate good selectivity.

HepG2 cells = tested on: HepG2 cells; set-up: method as in PMID 40368021; details: cited from earlier work
DU145 = test: MTT viability assay, DU145 prostate cancer cells; type: cell-based, human; details: for Cell viability: DU145, 24 h; for IC50: Homo sapiens, DU-145
Source text: as §1, §2, §3, §4

HT29 = test: MTT viability assay, HT29 colon cancer cells; type: cell-based, human; details: for Cell viability: HT29, 24 h; for IC50: Homo sapiens, HT-29
Source text: as §1, §2, §3

C8D1A = test: MTT viability assay, normal astrocytes C8D1A; type: cell-based, murine; details: C8D1A, 24 h
Source text: as §1, §2, §3

WM793 cells = tested on: WM793 cells; set-up: method as in PMID 34577645; details: WM793, 48 h; cited from earlier work
8505C = test: MTT viability assay, 8505C anaplastic thyroid carcinoma cells; type: cell-based, human; details: for Cell viability: 24 h; for IC50: Homo sapiens
Source text: as §1, §2, §3

MCF10A = test: MTT viability assay, normal breast epithelial cells; type: cell-based, human; details: for IC50: Homo sapiens, MCF-10A, MCF10A normal cells; for Cell viability: MCF10A, 24 h
Source text: as §1, §2, §3

MCF7 = test: MTT viability assay, MCF7 breast cancer cells; type: cell-based, human; details: for IC50: Homo sapiens; for Cell viability: MCF7, 24 h
Source text: as §1, §2, §3, §4

PNT2 = test: MTT viability assay, normal prostate epithelial cells; type: cell-based, human; details: for IC50: Homo sapiens; for Cell viability: PNT2, 24 h
Source text: as §1, §2, §3

CC(=O)C1=C(O)C=C2Oc3c(C(C)=O)c(O)c(C)c(O)c3[C@]2(C)C1=O [UA(−), (−)-usnic acid]
IC50 (TPC-1; TPC-1, 48 h): > 50 µg/mL
IC50 (TPC-1; TPC-1, 72 h): 39.2 µg/mL (≈ 114 µM)
selectivity index (SI) (TPC-1; IC50 Nthy ori 3-1 / IC50 TPC-1, 72 h): 0.74
Cell viability (TPC-1; 2.5 µg/mL): 96.85 % of control
Cell viability (TPC-1; 5 µg/mL): 104.40 % of control
Cell viability (TPC-1; 10 µg/mL): 96.79 % of control
Cell viability (TPC-1; 20 µg/mL): 93.49 % of control
Cell viability (TPC-1; 30 µg/mL): 91.95 % of control
Cell viability (TPC-1; 40 µg/mL): 92.26 % of control
Cell viability (TPC-1; 50 µg/mL): 92.38 % of control
IC50 (hepatotoxicity) (HepG2 cells; HepG2, 48 h): 16.0 µg/mL (≈ 46.5 µM)
IC50 (hepatotoxicity) (HepG2 cells; HepG2, 72 h): 18.3 µg/mL (≈ 53.1 µM)
Cell viability (DU145; 2.5 µg/mL): 99.84 % of control
Cell viability (DU145; 5 µg/mL): 89.03 % of control
Cell viability (DU145; 10 µg/mL): 82.15 % of control
Cell viability (DU145; 20 µg/mL): 77.63 % of control
Cell viability (DU145; 30 µg/mL): 68.28 % of control
Cell viability (DU145; 40 µg/mL): 64.95 % of control
Cell viability (DU145; 50 µg/mL): 65.86 % of control
IC50 (DU145; DU145, 48 h): 34.8 µg/mL (≈ 101 µM)
IC50 (DU145; DU145, 72 h): 18.6 µg/mL (≈ 54 µM)
selectivity index (SI) (DU145; IC50 PNT2 / IC50 DU145, 48 h): 1.02
selectivity index (SI) (DU145; IC50 PNT2 / IC50 DU145, 72 h): 1.49
Cell viability (HT29; 2.5 µg/mL): 102.45 % of control
Cell viability (HT29; 5 µg/mL): 90.48 % of control
Cell viability (HT29; 10 µg/mL): 84.03 % of control
Cell viability (HT29; 20 µg/mL): 79.62 % of control
Cell viability (HT29; 30 µg/mL): 74.37 % of control
Cell viability (HT29; 40 µg/mL): 72.48 % of control
Cell viability (HT29; 50 µg/mL): 73.95 % of control
IC50 (HT29; HT29, 48 h): > 50 µg/mL
IC50 (HT29; HT29, 72 h): 32.7 µg/mL (≈ 95 µM)
Cell viability (C8D1A; 2.5 µg/mL): 100.83 % of control
Cell viability (C8D1A; 5 µg/mL): 99.17 % of control
Cell viability (C8D1A; 10 µg/mL): 95.67 % of control
Cell viability (C8D1A; 20 µg/mL): 96.00 % of control
Cell viability (C8D1A; 30 µg/mL): 88.42 % of control
Cell viability (C8D1A; 40 µg/mL): 90.58 % of control
Cell viability (C8D1A; 50 µg/mL): 104.75 % of control
IC50 (WM793 cells): 52.09 µg/mL (≈ 151 µM)
Cell viability (8505C; 2.5 µg/mL): 105.18 % of control
Cell viability (8505C; 5 µg/mL): 107.97 % of control
Cell viability (8505C; 10 µg/mL): 100.80 % of control
Cell viability (8505C; 20 µg/mL): 100.00 % of control
Cell viability (8505C; 30 µg/mL): 102.79 % of control
Cell viability (8505C; 40 µg/mL): 103.98 % of control
Cell viability (8505C; 50 µg/mL): 94.42 % of control
IC50 (8505C; 48 h): > 50 µg/mL
IC50 (8505C; 72 h): > 50 µg/mL
IC50 (MCF10A; 48 h): > 50 µg/mL
IC50 (MCF10A; 72 h): > 50 µg/mL
Cell viability (MCF10A; 2.5 µg/mL): 102.83 % of control
Cell viability (MCF10A; 5 µg/mL): 100.30 % of control
Cell viability (MCF10A; 10 µg/mL): 101.52 % of control
Cell viability (MCF10A; 20 µg/mL): 98.59 % of control
Cell viability (MCF10A; 30 µg/mL): 100.10 % of control
Cell viability (MCF10A; 40 µg/mL): 103.54 % of control
Cell viability (MCF10A; 50 µg/mL): 99.39 % of control
IC50 (MCF7; MCF7, 48 h): > 50 µg/mL
IC50 (MCF7; MCF7, 72 h): 33.4 µg/mL (≈ 97 µM)
Cell viability (MCF7; 2.5 µg/mL): 124.74 % of control
Cell viability (MCF7; 5 µg/mL): 113.59 % of control
Cell viability (MCF7; 10 µg/mL): 110.03 % of control
Cell viability (MCF7; 20 µg/mL): 106.15 % of control
Cell viability (MCF7; 30 µg/mL): 109.10 % of control
Cell viability (MCF7; 40 µg/mL): 106.28 % of control
Cell viability (MCF7; 50 µg/mL): 91.15 % of control
IC50 (PNT2; PNT2, 48 h): 35.4 µg/mL (≈ 103 µM)
IC50 (PNT2; PNT2, 72 h): 27.8 µg/mL (≈ 80.7 µM)
Cell viability (PNT2; 2.5 µg/mL): 103.40 % of control
Cell viability (PNT2; 5 µg/mL): 99.24 % of control
Cell viability (PNT2; 10 µg/mL): 91.32 % of control
Cell viability (PNT2; 20 µg/mL): 83.13 % of control
Cell viability (PNT2; 30 µg/mL): 74.58 % of control
Cell viability (PNT2; 40 µg/mL): 68.75 % of control
Cell viability (PNT2; 50 µg/mL): 54.38 % of control
